Assay results: paper PMC10003010, “A Unique In Vitro Assay to Investigate ABCB4 Transport Function” (International Journal of Molecular Sciences, 2023)
Entries after “also recorded” stand apart in the source; their conditions may differ. Where two headings read alike, the source gives them in different places.

Key:
human ABCB4 [1] = target: T1, human ABCB4 (Homo sapiens, UniProt P21439); assay: Inhibition of ABCB4-mediated digoxin transport, bidirectional assay in Abcb1KO-MDCKII-ABCB4 cells; assay type: cell-based
T1 construct: expressed in transfected cells; host or cells: Abcb1KO-MDCKII (canine kidney, Abcb1 knockout), lentiviral transduction, single clone
T1 sequence (P21439 1-1279 isoform P21439-2): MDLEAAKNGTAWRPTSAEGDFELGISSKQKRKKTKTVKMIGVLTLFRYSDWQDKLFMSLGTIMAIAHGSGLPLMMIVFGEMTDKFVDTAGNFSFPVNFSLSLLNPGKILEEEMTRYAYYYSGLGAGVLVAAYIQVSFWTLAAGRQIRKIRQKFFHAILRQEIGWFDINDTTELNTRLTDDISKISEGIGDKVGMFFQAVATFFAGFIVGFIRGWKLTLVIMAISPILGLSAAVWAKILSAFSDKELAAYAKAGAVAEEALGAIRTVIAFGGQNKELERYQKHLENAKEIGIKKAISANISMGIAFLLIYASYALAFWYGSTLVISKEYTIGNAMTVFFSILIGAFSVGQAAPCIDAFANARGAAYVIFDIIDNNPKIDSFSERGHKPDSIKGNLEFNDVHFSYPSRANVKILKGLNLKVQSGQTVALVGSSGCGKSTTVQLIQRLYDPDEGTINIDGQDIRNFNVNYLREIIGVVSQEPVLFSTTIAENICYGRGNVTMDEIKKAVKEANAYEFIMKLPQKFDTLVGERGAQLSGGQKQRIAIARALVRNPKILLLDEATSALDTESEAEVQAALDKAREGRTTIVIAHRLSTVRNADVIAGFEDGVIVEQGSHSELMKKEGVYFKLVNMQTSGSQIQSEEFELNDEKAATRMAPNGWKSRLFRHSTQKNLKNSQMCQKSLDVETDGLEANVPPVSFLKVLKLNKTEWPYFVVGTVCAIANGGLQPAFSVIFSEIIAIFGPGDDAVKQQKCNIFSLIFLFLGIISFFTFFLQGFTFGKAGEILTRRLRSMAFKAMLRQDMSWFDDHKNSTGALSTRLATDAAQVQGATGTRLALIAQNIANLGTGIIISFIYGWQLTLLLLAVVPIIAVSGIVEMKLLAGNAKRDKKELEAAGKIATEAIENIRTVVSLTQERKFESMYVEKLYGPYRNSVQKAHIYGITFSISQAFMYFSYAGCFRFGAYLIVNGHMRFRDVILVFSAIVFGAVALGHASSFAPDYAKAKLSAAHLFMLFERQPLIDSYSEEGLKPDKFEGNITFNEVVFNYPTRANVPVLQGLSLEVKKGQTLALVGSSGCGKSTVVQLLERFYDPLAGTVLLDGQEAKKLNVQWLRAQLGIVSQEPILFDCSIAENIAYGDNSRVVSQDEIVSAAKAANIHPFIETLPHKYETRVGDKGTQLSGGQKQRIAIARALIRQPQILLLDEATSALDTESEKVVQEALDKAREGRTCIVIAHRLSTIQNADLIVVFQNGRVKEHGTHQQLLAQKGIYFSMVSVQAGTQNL

ABCB4 [2] = settings: read-out: In Vitro Literature Data (IC50), cited from earlier work
[3] = ref FDA Liver Toxicity Knowledge Base (LTKB); cited from earlier work
ABCB1 = ABCB1 (Homo sapiens, UniProt P08183); settings: Y/N; cited from earlier work
ABCB1, sequence (P08183 whole entry): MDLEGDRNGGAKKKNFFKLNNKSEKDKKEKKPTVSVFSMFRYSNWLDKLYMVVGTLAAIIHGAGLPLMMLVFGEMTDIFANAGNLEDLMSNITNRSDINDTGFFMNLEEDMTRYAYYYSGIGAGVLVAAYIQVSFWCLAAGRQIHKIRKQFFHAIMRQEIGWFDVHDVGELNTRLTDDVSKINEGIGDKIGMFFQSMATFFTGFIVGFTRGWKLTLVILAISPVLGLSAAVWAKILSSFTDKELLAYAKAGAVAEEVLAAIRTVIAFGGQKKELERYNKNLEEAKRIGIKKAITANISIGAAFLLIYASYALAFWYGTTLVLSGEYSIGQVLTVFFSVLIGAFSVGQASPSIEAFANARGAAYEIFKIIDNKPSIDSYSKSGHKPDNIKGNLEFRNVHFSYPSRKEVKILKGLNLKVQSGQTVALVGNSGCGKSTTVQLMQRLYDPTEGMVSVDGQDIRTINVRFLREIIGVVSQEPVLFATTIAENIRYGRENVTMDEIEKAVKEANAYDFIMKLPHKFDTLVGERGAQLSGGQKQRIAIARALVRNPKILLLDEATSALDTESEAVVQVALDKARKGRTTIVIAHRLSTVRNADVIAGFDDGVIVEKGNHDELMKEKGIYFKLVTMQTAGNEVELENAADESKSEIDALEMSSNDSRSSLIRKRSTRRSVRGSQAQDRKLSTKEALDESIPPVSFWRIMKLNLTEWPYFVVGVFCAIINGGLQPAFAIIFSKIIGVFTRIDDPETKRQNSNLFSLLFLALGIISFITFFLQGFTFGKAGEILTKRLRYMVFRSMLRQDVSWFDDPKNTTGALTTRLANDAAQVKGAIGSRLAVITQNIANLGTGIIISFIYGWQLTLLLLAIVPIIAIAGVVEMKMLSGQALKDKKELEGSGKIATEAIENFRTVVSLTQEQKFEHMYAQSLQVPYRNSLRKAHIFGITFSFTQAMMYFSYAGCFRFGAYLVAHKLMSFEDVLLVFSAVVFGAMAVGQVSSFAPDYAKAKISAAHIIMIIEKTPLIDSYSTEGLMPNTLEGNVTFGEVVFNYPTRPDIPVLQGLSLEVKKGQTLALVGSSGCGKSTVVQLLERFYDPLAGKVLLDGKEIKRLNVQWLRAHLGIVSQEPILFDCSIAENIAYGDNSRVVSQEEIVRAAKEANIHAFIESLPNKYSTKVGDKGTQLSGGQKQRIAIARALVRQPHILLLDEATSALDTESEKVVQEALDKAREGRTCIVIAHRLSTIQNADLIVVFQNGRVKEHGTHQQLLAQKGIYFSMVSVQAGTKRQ

human ABCB4 [4] = target: T1, human ABCB4; assay: Bidirectional transport (efflux ratio) in Abcb1KO-MDCKII-ABCB4 cells, substrate test; assay type: in vitro ADME; settings: for ABCB4 substrate status, in words: bidirectional transport, ER cut-off 2
canine Abcb1 [5] = target: T2, canine Abcb1 (Canis lupus familiaris, UniProt C0KKU9); assay: in vitro; settings: dog, MDCK, pH 7.4
T2 sequence (C0KKU9 1-1281): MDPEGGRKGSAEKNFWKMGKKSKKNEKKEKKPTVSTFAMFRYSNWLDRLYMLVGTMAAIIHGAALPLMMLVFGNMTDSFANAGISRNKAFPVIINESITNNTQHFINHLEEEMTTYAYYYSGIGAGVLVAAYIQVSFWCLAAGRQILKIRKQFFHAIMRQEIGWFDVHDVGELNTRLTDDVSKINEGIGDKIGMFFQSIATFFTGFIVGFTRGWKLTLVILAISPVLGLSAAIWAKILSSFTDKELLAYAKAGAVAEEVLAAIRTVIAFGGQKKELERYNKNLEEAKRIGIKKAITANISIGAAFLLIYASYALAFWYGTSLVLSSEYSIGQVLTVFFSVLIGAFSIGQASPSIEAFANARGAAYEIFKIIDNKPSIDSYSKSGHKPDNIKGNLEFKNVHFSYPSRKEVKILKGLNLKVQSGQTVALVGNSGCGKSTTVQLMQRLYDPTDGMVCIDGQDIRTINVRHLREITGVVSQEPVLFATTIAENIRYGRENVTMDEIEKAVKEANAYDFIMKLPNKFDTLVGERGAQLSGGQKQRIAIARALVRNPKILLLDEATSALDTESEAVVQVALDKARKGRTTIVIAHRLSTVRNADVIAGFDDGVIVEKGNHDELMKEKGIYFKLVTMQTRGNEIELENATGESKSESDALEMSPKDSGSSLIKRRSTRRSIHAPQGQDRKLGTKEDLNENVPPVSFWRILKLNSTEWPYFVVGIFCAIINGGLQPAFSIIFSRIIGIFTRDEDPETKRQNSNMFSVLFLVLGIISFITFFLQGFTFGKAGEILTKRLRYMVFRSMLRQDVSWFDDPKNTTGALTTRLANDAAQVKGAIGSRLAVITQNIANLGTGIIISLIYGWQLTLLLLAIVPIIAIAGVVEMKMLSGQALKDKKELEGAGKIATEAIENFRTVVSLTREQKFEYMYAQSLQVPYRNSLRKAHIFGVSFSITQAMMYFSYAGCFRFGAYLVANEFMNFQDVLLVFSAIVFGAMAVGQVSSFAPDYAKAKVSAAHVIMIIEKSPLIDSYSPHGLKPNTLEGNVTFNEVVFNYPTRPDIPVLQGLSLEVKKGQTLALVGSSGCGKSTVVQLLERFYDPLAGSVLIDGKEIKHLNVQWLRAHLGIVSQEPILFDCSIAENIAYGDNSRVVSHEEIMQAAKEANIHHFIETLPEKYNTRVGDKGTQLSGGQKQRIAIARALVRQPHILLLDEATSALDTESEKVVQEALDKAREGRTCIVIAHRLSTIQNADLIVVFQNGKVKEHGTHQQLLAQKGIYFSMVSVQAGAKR

ABCB4 [6] = settings: cited from earlier work; for In Vitro Literature Data, inhibitor (IC50 value was not determined): digoxin transport in ABCB4-transfected LLC-PK1 cells
ABCB4 [7] = settings: cited from earlier work; for IC50: read-out: In Vitro Literature Data (IC50)
canine Abcb1 [8] = target: T2, canine Abcb1; set-up: To confirm the impact of endogenous canine Abcb1 on the efflux ratio (ER); host or cells: MDCKII parental (wildtype) cells; method as in PMID 31266750; settings: previous study; cited from earlier work
[9] = digoxin 1 µM probe, ABCB4 cell monolayers, samples at 3 h, read-out: IC50 (µM), Based on Digoxin ER
[10] = primary hepatocyte assay, labeled PC

Compound: CC(=O)Oc1ccccc1C(=O)O [acetylsalicylic acid]
- Effect on ABCB4-mediated digoxin transport, in words (human ABCB4 [1]; digoxin 1 µM probe): no effect
- IC50 (human ABCB4 [1]; [9]): > 100 µM
- IC50 (ABCB4 [2]; human primary hepatocyte assay): > 300 µM
- DILI Concern [3]: No DILI concern

Compound: CCCCc1oc2ccccc2c1C(=O)c1cc(I)c(OCCN(CC)CC)c(I)c1 [amiodarone]
- IC50 (human ABCB4 [1]; [9]): > 10 µM

Compound: CCOC(=O)C1=C(COCCN)NC(C)=C(C(=O)OC)C1c1ccccc1Cl (stereo not drawn) [amlodipine]
- Effect on ABCB4-mediated digoxin transport, in words (human ABCB4 [1]; digoxin 1 µM probe): weak interaction
- IC50 (human ABCB4 [1]; [9]): 17.9 µM

Compound: C=C[C@@H]1C[C@]1(NC(=O)[C@@H]1C[C@@H](Oc2ncc(OC)c3ccc(Cl)cc23)CN1C(=O)[C@@H](NC(=O)OC(C)(C)C)C(C)(C)C)C(=O)NS(=O)(=O)C1CC1 [asunaprevir]
- Effect on ABCB4-mediated digoxin transport, in words (human ABCB4 [1]; digoxin 1 µM probe): ABCB4 inhibitors

Compound: CCc1oc2ccccc2c1C(=O)c1cc(Br)c(O)c(Br)c1 [benzbromarone]
- IC50 (human ABCB4 [1]): 19.9 µM
- IC50 (ABCB4 [2]; human primary hepatocyte assay): 0.4 µM
- DILI Concern [3]: Most DILI concern

Compound: NC(=O)N1c2ccccc2C=Cc2ccccc21 [carbamazepine]
- ABCB1 Interactor (ABCB1): Conflicting information [50]
- IC50 (human ABCB4 [1]; [9]): > 80 µM
- IC50 (ABCB4 [2]; human primary hepatocyte assay): > 300 µM
- DILI Concern [3]: Most DILI concern

Compound: COc1ccccc1OCCNCC(O)COc1cccc2[nH]c3ccccc3c12 (stereo not drawn) [carvedilol]
- IC50 (human ABCB4 [1]; [9]): 0.7 µM
- DILI Concern [3]: Less DILI concern

Compound: CC[C@H]1OC(=O)[C@H](C)[C@@H](O[C@H]2C[C@@](C)(OC)[C@@H](O)[C@H](C)O2)[C@H](C)[C@@H](O[C@@H]2O[C@H](C)C[C@H](N(C)C)[C@H]2O)[C@](C)(OC)C[C@@H](C)C(=O)[C@H](C)[C@@H](O)[C@]1(C)O [clarithromycin]
- IC50 (human ABCB4 [1]; [9]): > 80 µM
- DILI Concern [3]: Most DILI concern

Compound: CC(C)CN(C[C@@H](O)[C@H](Cc1ccccc1)NC(=O)O[C@H]1CO[C@H]2OCC[C@H]21)S(=O)(=O)c1ccc(N)cc1 [darunavir]
- Effect on ABCB4-mediated digoxin transport, in words (human ABCB4 [1]; digoxin 1 µM probe): ABCB4 inhibitors
- IC50 (human ABCB4 [1]; [9]): > 10 µM
- inhibition at 10 µM (human ABCB4 [1]; read-out: % inhibition of ABCB4-mediated digoxin transport at 10 µM, 10 µM test drug, digoxin 1 µM): 60%

Compound: C[C@H]1O[C@@H](O[C@H]2[C@@H](O)C[C@H](O[C@H]3[C@@H](O)C[C@H](O[C@H]4CC[C@@]5(C)[C@H](CC[C@@H]6[C@@H]5C[C@@H](O)[C@]5(C)[C@@H](C7=CC(=O)OC7)CC[C@]65O)C4)O[C@@H]3C)O[C@@H]2C)C[C@H](O)[C@@H]1O [digoxin]
- ABCB4 substrate status, in words (human ABCB4 [4]): shared substrate for ABCB1 and ABCB4
- efflux ratio at 1 µM (canine Abcb1 [5]): 4.74 ± 0.15

Compound: COc1ccc([C@@H]2Sc3ccccc3N(CCN(C)C)C(=O)[C@@H]2OC(C)=O)cc1 [diltiazem]
- IC50 (human ABCB4 [1]; [9]): 48.6 µM

Compound: COc1cc2c(cc1OC)CN(CCc1ccc(NC(=O)c3cccc4c(=O)c5cccc(OC)c5[nH]c34)cc1)CC2 [elacridar]
- Effect on ABCB4-mediated digoxin transport, in words (human ABCB4 [1]; digoxin 1 µM probe): strong concentration-dependent inhibitory effect
- IC50 (human ABCB4 [1]; [9]): 0.15 µM

Compound: C#Cc1cccc(Nc2ncnc3cc(OCCOC)c(OCCOC)cc23)c1 [erlotinib]
- IC50 (human ABCB4 [1]; [9]): > 5 µM
- DILI Concern [3]: Most DILI concern

Compound: CCOC(=O)C1=C(C)NC(C)=C(C(=O)OC)C1c1cccc(Cl)c1Cl (stereo not drawn) [felodipine]
- Effect on ABCB4-mediated digoxin transport, in words (human ABCB4 [1]; digoxin 1 µM probe): no interaction
- IC50 (human ABCB4 [1]; [9]): > 30 µM

Compound: CC(C)OC(=O)C(C)(C)Oc1ccc(C(=O)c2ccc(Cl)cc2)cc1 [fenofibrate]
- Effect on ABCB4-mediated digoxin transport, in words (human ABCB4 [1]; digoxin 1 µM probe): no interaction
- IC50 (human ABCB4 [1]; [9]): > 20 µM

Compound: OC(Cn1cncn1)(Cn1cncn1)c1ccc(F)cc1F [fluconazole]
- IC50 (human ABCB4 [1]): > 3 µM
- IC50 (ABCB4 [2]; human primary hepatocyte assay): > 300 µM
- DILI Concern [3]: Most DILI concern

Compound: CC[C@H](Nc1ncnc2[nH]cnc12)c1nc2cccc(F)c2c(=O)n1-c1ccccc1 [idelalisib]
- Effect on ABCB4-mediated digoxin transport, in words (human ABCB4 [1]; digoxin 1 µM probe): did not inhibit ABCB4
- IC50 (human ABCB4 [1]; [9]): > 5 µM

Compound: CCC(C)n1ncn(-c2ccc(N3CCN(c4ccc(OCC5COC(Cn6cncn6)(c6ccc(Cl)cc6Cl)O5)cc4)CC3)cc2)c1=O (stereo not drawn) [itraconazole]
- Effect on ABCB4-mediated transport of gefitinib (human ABCB4 [4]; itraconazole 2 µM, gefitinib 0.5 µM): inhibited
- In Vitro Literature Data, % inhibition at 10 µM (ABCB4 [6]; 10 µM, LLC-PK1-ABCB4 cells): 30%
- IC50 (human ABCB4 [1]; [9]): 0.17 µM
- In Vitro Literature Data, % inhibition at 1 µM (ABCB4 [7]; 1 µM): 50%
- IC50 (ABCB4 [7]): 22.5 µM
- IC50 (ABCB4 [2]; [10]): 2.1 µM
- DILI Concern [3]: Most DILI concern

Compound: CC(=O)N1CCN(c2ccc(OCC3COC(Cn4ccnc4)(c4ccc(Cl)cc4Cl)O3)cc2)CC1 (stereo not drawn) [ketoconazole]
- IC50 (human ABCB4 [1]): 0.56 µM
- IC50 (ABCB4 [7]): 4.6 µM
- DILI Concern [3]: Most DILI concern

Compound: Cc1cccc(C)c1OCC(=O)N[C@@H](Cc1ccccc1)[C@@H](O)C[C@H](Cc1ccccc1)NC(=O)[C@H](C(C)C)N1CCCNC1=O [lopinavir]
- Effect on ABCB4-mediated digoxin transport, in words (human ABCB4 [1]; digoxin 1 µM probe): ABCB4 inhibitors
- IC50 (human ABCB4 [1]; [9]): 0.6 µM

Compound: CN(Cc1cnc2nc(N)nc(N)c2n1)c1ccc(C(=O)N[C@@H](CCC(=O)O)C(=O)O)cc1 [methotrexate]
- Effect on ABCB4-mediated digoxin transport, in words (human ABCB4 [1]; digoxin 1 µM probe): did not detect interaction; also recorded: did not show inhibition
- IC50 (human ABCB4 [1]; [9]): > 10 µM
- IC50 (ABCB4 [2]; human primary hepatocyte assay): 3.1 µM
- DILI Concern [3]: Most DILI concern

Compound: COCC(=O)O[C@]1(CCN(C)CCCc2nc3ccccc3[nH]2)CCc2cc(F)ccc2[C@@H]1C(C)C [mibefradil]
- Effect on ABCB4-mediated digoxin transport, in words (human ABCB4 [1]; digoxin 1 µM probe): strong concentration-dependent inhibitory effect
- IC50 (human ABCB4 [1]; [9]): 0.4 µM

Compound: Nc1cc(N2CCCCC2)nc(N)[n+]1[O-] [minoxidil]
- Effect on ABCB4-mediated digoxin transport, in words (human ABCB4 [1]; digoxin 1 µM probe): no effect
- IC50 (human ABCB4 [1]; [9]): > 20 µM
- IC50 (ABCB4 [2]; human primary hepatocyte assay): > 300 µM

Compound: COc1ccnc(C[S+]([O-])c2nc3ccc(OC(F)F)cc3[nH]2)c1OC (stereo not drawn) [pantoprazole]
- Effect on ABCB4-mediated digoxin transport, in words (human ABCB4 [1]; digoxin 1 µM probe): no interaction
- IC50 (human ABCB4 [1]; [9]): > 10 µM
- DILI Concern [3]: Less DILI concern

Compound: COc1cc2nc(N3CCN(C(=O)c4ccco4)CC3)nc(N)c2cc1OC [prazosin]
- ABCB4 substrate status, in words (human ABCB4 [4]): minor ABCB4-mediated directional transport
- IC50 (human ABCB4 [1]; [9]): 16.1 µM

Compound: C=C[C@H]1C[N@@]2CC[C@H]1C[C@@H]2[C@@H](O)c1ccnc2ccc(OC)cc12 [quinidine]
- efflux ratio at 1 µM (human ABCB4 [4]; human, pH 7.4, 1 µM, ABCB4 cells, read-out: Efflux ratio (ER)): < 2
- IC50 (human ABCB4 [1]; [9]): 1.09 µM

Compound: CC(C)c1nc(CN(C)C(=O)N[C@H](C(=O)N[C@@H](Cc2ccccc2)C[C@H](O)[C@H](Cc2ccccc2)NC(=O)OCc2cncs2)C(C)C)cs1 [ritonavir]
- DILI Concern [3]: Most DILI concern

Compound: CC(C)(C)NC(=O)[C@@H]1C[C@@H]2CCCC[C@@H]2CN1C[C@@H](O)[C@H](Cc1ccccc1)NC(=O)[C@H](CC(N)=O)NC(=O)c1ccc2ccccc2n1 [saquinavir]
- IC50 (human ABCB4 [1]; [9]): 1.4 µM
- DILI Concern [3]: Less DILI concern

Compound: CNC(=O)c1cc(Oc2ccc(NC(=O)Nc3ccc(Cl)c(C(F)(F)F)c3)cc2)ccn1 [sorafenib]
- IC50 (human ABCB4 [1]; [9]): 4.42 µM
- DILI Concern [3]: Most DILI concern

Compound: C/C=C/C[C@@H](C)C(=O)[C@H]1C(=O)N[C@@H](C(C)C)C(=O)N(C)CC(=O)N(C)[C@@H](CC(C)C)C(=O)N[C@@H](C(C)C)C(=O)N(C)[C@@H](CC(C)C)C(=O)N[C@@H](C)C(=O)N[C@H](C)C(=O)N(C)[C@@H](CC(C)C)C(=O)N(C)[C@@H](CC(C)C)C(=O)N(C)[C@@H](C(C)C)C(=O)N1C [valspodar]
- In Vitro Literature Data, inhibitor (IC50 value was not determined) (ABCB4 [6]): Inhibitor ^d [16]
- IC50 (human ABCB4 [1]): 0.15 µM
- Effect on ABCB4-mediated digoxin transport, in words (human ABCB4 [1]; digoxin 1 µM probe): potent ABCB4 inhibitor

Compound: COc1ccc(CCN(C)CCCC(C#N)(c2ccc(OC)c(OC)c2)C(C)C)cc1OC (stereo not drawn) [verapamil]
- In Vitro Literature Data, inhibitor (IC50 value was not determined) (ABCB4 [6]): inhibitor

Compound: O[C@@H](COc1cccc2ncccc12)CN1CCN([C@@H]2c3ccccc3[C@@H]3[C@H](c4ccccc42)C3(F)F)CC1 [zosuquidar]
- Effect on ABCB4-mediated digoxin transport, in words (human ABCB4 [1]; digoxin 1 µM probe): strong concentration-dependent inhibitory effect
- IC50 (human ABCB4 [1]; [9]): 0.07 µM

Compound: ivermectin
- In Vitro Literature Data, substrate (ABCB4 [6]; LLC-PK1-ABCB4 cells): Substrate [16]
- Effect on ABCB4-mediated digoxin transport, in words (human ABCB4 [1]; digoxin 1 µM probe): ABCB4 inhibitor
- IC50 (human ABCB4 [1]; [9]): 0.53 µM
- DILI Concern [3]: Less DILI concern

Compound: maraviroc
- Affinity for endogenous canine Abcb1 in MDCKII cell lines, in words (canine Abcb1 [8]): strong affinity
